Patent US5750504A, “Antimicrobial proteins” (Zeneca Agrochemicals, priority 1996, dated 1998)

Legend:
[1] = target: T1, porcine α-amylase (porcine pancreas) (Sus scrofa, UniProt P00690); assay: Inhibition of α-amylase; type: biochemical; details: porcine enzyme; rates as high as 200 μg/ml
T1 construct: the enzyme from porcine pancreas; purchased Sigma; host or cells: porcine pancreas
T1 sequence (P00690 16-511): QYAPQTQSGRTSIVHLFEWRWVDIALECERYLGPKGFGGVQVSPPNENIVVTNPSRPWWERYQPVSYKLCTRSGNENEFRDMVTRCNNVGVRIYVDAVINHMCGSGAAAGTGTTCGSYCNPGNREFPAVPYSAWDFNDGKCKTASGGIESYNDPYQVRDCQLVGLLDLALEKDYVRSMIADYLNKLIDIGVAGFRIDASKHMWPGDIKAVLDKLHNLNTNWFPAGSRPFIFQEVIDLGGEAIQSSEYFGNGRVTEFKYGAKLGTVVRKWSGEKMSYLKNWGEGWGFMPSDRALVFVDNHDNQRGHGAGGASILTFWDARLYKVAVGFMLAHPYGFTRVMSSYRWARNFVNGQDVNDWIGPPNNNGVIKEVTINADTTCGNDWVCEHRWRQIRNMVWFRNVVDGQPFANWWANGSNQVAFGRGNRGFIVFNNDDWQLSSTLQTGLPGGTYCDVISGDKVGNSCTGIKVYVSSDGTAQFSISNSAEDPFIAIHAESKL
Experimental: (§1) A crude α-amylase extract was prepared from dissected guts of adult cockroaches (Blatta orientalis) by homogenising in 20 mM Tris/HCl, pH 7.5, 10 mM CaCl2 and removal of cell-debris by centrifugation. Human and porcine α-amylases were purchased from Sigma. Type 1-α-amylaseinhibitor from wheat (purchased from Sigma) was used as a positive control. Amylase extracts were incubated with peptides for 20 min at 30° C. prior to addition of starch and enzyme activity was detected using the method of Bernfeld (1955, Methods Enzymol, Colwick and Kaplan eds, vol 1:149-158).
(§2) The α-amylase inhibition activities of Hs-AFP1 and Ah-AMP1 were compared on α-amylases from the three sources to that of the Sorgum bicolor homologue SIα3, previously reported to inhibit insect gut α-amylases (Bloch and Richardson, 1991, FEBS Lett, 279:101-104). SIα3 inhibited the activity of the enzymes from insect gut and human saliva to greater than 70% at rates as low as 5 μg/ml.

[2] = target: T2, Human α-amylase (human saliva) (Homo sapiens, UniProt P0DUB6); assay: Inhibition of α-amylase; type: biochemical; details: human enzyme; rates as high as 200 μg/ml
T2 construct: the enzymes from insect gut and human saliva; purchased Sigma; host or cells: human saliva
T2 sequence (P0DUB6 16-511): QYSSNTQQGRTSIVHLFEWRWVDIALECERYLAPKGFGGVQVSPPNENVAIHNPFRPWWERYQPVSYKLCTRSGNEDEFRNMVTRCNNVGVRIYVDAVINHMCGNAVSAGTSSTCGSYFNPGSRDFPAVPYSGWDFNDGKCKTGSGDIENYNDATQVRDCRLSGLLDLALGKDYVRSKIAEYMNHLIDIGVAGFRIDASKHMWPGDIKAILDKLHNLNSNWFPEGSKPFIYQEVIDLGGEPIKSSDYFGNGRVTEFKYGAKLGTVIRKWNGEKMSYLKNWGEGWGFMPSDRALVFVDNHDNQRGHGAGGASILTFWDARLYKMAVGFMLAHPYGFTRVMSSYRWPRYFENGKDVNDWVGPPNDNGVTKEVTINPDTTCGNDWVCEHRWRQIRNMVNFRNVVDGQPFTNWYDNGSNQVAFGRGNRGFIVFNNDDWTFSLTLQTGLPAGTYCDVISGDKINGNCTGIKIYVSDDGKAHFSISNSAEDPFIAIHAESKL
Experimental: as §1, §2

[3] = system: Leptospaeria maculans; assay: Antifungal activity assay (microspectrophotometry); type: cell-based; details: for antifungal activity on Leptospaeria maculans (in words): in 1/2PDB+; for IC50: host Brassica
Experimental: (§3) Antifungal activity was measured by microspectrophotometry as previously described (Broekaert, 1990, FEMS Microbiol Lett, 69:55-60). Routinely, tests were performed with 20 μl of a (filter-sterilized) test solution and 80 μl of a suspension of fungal spores (2×10^4 spores/ml) in half strength potato dextrose broth (1/2 PDB). […] Control microcultures contained 20 μl of sterile distilled water and 80 μl of the fungal spore suspension.
(§4) Unless otherwise stated the test organism was Fusarium culmorum (strain IMI 180420) and incubation was done at 25° C. for 48 hours. Percent growth inhibition is defined as 100 times the ratio of the corrected absorbance of the control microculture minus the corrected absorbance of the test microculture over the corrected absorbance at 595 nm of the control microculture. The corrected absorbance values equal the absorbance at 595 nm of the culture measured after 48 hours minus the absorbance at 595 nm measured after 30 min.
(§5) The antifungal potency of the purified proteins was assessed on different plant pathogenic fungi, using the assay described in Example 1. Growth of fungi, collection and harvest of fungal spores and preparation of mycelial fragments were done as previously described (Broekaert et al, 1990, FEMS Microbiol Lett, 69:55-60). Serial dilutions of the antifungal proteins were applied to the fungi, either using growth medium SMF- (the synthetic growth medium of Example 1), medium SMF+ (medium SMF- supplemented with 1 mM CaCl2 and 50 mM KCl), growth medium 1/2 PDB- (half strength potato dextrose broth as in Example 1) or growth medium 1/2 PDB+ (medium 1/2 PDB- supplemented with 1 mM CaCl2 and 50 mM Kcl). The percent growth inhibition was measured by microspectrophotometry. […]
(§6) The abbreviations used are: IC50 =concentration required for 50% growth inhibition determined as described in Example 1; ND=not determined; Sp=spores; PrSp=spores pregerminated in the medium for 24 hours; MF=mycelial fragments preincubated for 48 hours in the medium prior to addition of the proteins; BHR=broad host range; SF=saprophytic fungus; SMF-=synthetic growth medium as described in Example 1; SMF+=SMF- supplemented with 1 mM CaCl2 and 50 mM KCl; 1/2PDB-=half strength potato dextrose broth as described in Example 1; 1/2PDB+=1/2PDB- supplemented with 1 mM CaCl2 and 50 mM KCl.

[4] = system: Alternaria brassicae; assay: Antifungal activity assay (microspectrophotometry); type: cell-based; details: for IC50: host Brassica, inoculum Sp, period of incubation in AFP-solution 66
Experimental: as §3, §4, §5, §6

[5] = system: Cercospora beticola; assay: Antifungal activity assay (microspectrophotometry); type: cell-based; details: strain SES; host Beta; medium 1/2PDB+; inoculum PrSp; period of incubation in AFP-solution
Experimental: as §3, §4, §5, §6

[6] = system: Alternaria longipes; assay: Antifungal activity assay (microspectrophotometry); type: cell-based; details: strain CBS620.83, host Nicotiana, inoculum Sp, period of incubation in AFP-solution 70
Experimental: as §3, §4, §5, §6

[7] = system: hyphae of Fusarium culmorum; assay: Morphological effect on hyphae; type: cell-based
[8] = system: crude α-amylase extract from guts of adult cockroaches; assay: Inhibition of α-amylase; type: biochemical, Blatta orientalis; details: cockroach gut enzyme; rates as high as 200 μg/ml
Experimental: as §1, §2

[9] = strain LM36uea, medium 1/2PDB+, inoculum Sp, period of incubation in AFP-solution 48
[10] = strain LM36uea, medium 1/2PDB-, inoculum Sp, period of incubation in AFP-solution 48
[11] = strain SES1, medium 1/2PDB+, inoculum PrSp, period of incubation in AFP-solution 120
[12] = strain SES2, medium 1/2PDB+, inoculum PrSp, period of incubation in AFP-solution 120

Substance | inhibition of α-amylase activity [1] | inhibition of α-amylase activity [2] | antifungal activity on Leptospaeria maculans (in words) [3] | IC50 [3, 9] | IC50 [3, 10] | IC50 [3, 11] | IC50 [3, 12] | IC50 ([4]; medium SMF+) | IC50 ([4]; medium SMF-) | IC50 [5] | IC50 ([6]; medium SMF+) | IC50 ([6]; medium SMF-) | hyper-branching of hyphae of Fusarium culmorum [7] | inhibition of α-amylase activity [8] | reduction of activity in medium SMF- versus SMF+ ([4]; on Alternaria brassicae)
Hs-AFP1: Heuchera sanquinea antifungal protein 1; 5 kDa polypeptide purified from seeds, 54 amino acids, SEQ ID NO 1 (DGVKLCDVPSGTWSGHCGSSSKCSQQCKDREHFAYGGACHYQFPSVKCFCKRQC) | no inhibition | no inhibition | is not | > 100 µg/mL | 25 µg/mL | > 100 µg/mL | > 100 µg/mL | 3 µg/mL | 1.5 µg/mL | 1.5 µg/mL | 6 µg/mL | 0.75 µg/mL | causes hyper-branching | no inhibition | 
Ah-AMP1: Aesculus hippocastanum antimicrobial protein 1; 5 kDa polypeptide purified from seeds, 50 amino acids, SEQ ID NO 2 (LCNERPSQTWSGNCGNTAHCDKQCQDWEKASHGACHKRENHWKCFCYFNC) | no inhibition | no inhibition | highly active | 6 µg/mL | 0.5 µg/mL | < 0.75 µg/mL | < 0.75 µg/mL | 3 µg/mL | 1.5 µg/mL | 1.5 µg/mL | 100 µg/mL | 25 µg/mL | does not cause hyper-branching | no inhibition | two-fold
